Source: publication PMC7891380 (Chemical Biology & Drug Design, 2020)

System: multidrug‐resistant A. baumannii
Assay: Peptide MIC, standard microbroth dilution assay
Type: cell-based, Acinetobacter baumannii
Conditions: result in words, based on MIC

LKIPGFVKDTLKKVAKGIFSAVAGAMTPS [Hymenochirin‐2B]
potency against multidrug‐resistant A. baumannii: high potency
